Numbers after ± are expanded uncertainties.
Conditions: Liquid, Coaxial cylinder method

O [water]
thermal conductivity [W/m/K]
Conditions | 290.6 K | 329.7 K | 367.1 K | 395.1 K | 440.7 K | 484.2 K | 514.2 K | 549.8 K | 575.4 K
1000 kPa | 0.592 ± 0.017 | 0.649 ± 0.018 | 0.679 ± 0.019 | 0.683 ± 0.019 | – | – | – | – | –
10000 kPa | 0.602 ± 0.017 | 0.655 ± 0.018 | 0.684 ± 0.019 | 0.692 ± 0.019 | 0.683 ± 0.019 | 0.66 ± 0.019 | 0.638 ± 0.018 | 0.587 ± 0.017 | 0.54 ± 0.015
40000 kPa | 0.613 ± 0.017 | 0.665 ± 0.019 | 0.697 ± 0.02 | 0.709 ± 0.02 | 0.703 ± 0.02 | 0.684 ± 0.019 | 0.662 ± 0.019 | 0.628 ± 0.018 | 0.594 ± 0.017

From the NIST ThermoML archive (doi:10.1021/je049814b)
